Measurements reported in patent publication US10028906B2, “Method and kit for treating a solid tumor and associated desmoplasia” (Rosalind Franklin Univ. of Medicine and Science, priority 2016, dated 2018).
“Also recorded” adds a separate entry of the source. Where no end group is shown, it is not given here.

Legend:
FC1199 orthotopic tumors [1] = assay: in vivo FC1199 orthotopic tumors, tumor burden as pancreas weight; parameters: species or system mice; conditions: for tumor burden / tumor growth as measured by pancreas weight: orthotopic FC1199 tumors in mice, no day stated; for potentiation of the therapeutic effects of gemcitabine / chemotherapeutic agent in vivo: combination, pancreas weight, FIGS. 21 and 22
Excerpt: FIGS. 1-24 show the in vitro and in vivo studies of CCNp37 (SEQ ID NO. 37) (Peptide 2 in the FIGS.) and CCNp38 (SEQ ID NO. 38) (Peptide 1 in the FIGS.) alone or in combination with a chemotherapeutic agent gemcitabine in treating pancreatic cells or orthotopic tumors implanted in the pancreas of mice. Gemcitibine is an example of an approved small molecule chemotherapeutic agent that is used in the clinic for pancreatic cancer, other suitable chemotherapeutic or immunotherapeutic agents are, for example, Abraxane (Paclitaxel Albumin-stabilized Nanoparticle Formulation), Afinitor (Everolimus), Erlotinib Hydrochloride, Everolimus, 5-FU (Fluorouracil Injection), Fluorouracil Injection, Gemcitabine Hydrochloride, Gemzar (Gemcitabine Hydrochloride), Irinotecan Hydrochloride Liposome, Mitomycin C, Mitozytrex (Mitomycin C), Mutamycin (Mitomycin C), Onivyde (Irinotecan Hydrochloride Liposome), Paclitaxel Albumin-stabilized Nanoparticle Formulation, Sunitinib Malate, Sutent (Sunitinib Malate), and Tarceva (Erlotinib Hydrochloride) and combinations of the same. Other suitable drug combinations for treating pancreatic cancer includes: FOLFIRINOX, GEMCITABINE-CISPLATIN, GEMCITABINE-OXALIPLATIN, and OFF. Suitable drugs for treatment for gastroenteropancreatic neuroendocrine tumors: Lanreotide Acetate, and Somatuline Depot (Lanreotide Acetate).
(§1) FIGS. 6-24 show the experimental protocol and results of in vivo studies of orthotopic tumors derived from the Murine FC1199 cell line and implanted into Kras and P53 mice.
FIGS. 18 and 19 show the protocol of a second in vivo experiment (Experiment 2).
(§2) FIGS. 21-24 show the protocol for the second invo experiment on the effectiveness of administering Peptides 1 and 2±gemcitabine. […] In FIG. 21, peptide 1 or 2 was delivered on day 11 of the study after tumor implantation and gemcitabine was delivered on day 14. […] Ascites formation is a marker of late stage pancreatic cancer and can predict mortality.

[2] = in vivo toxicity study (body weight change); conditions: tumor-bearing mice
Excerpt: as §1
Ascites formation is a marker of late stage pancreatic cancer and can predict mortality.

[3] = system: Human MIA PaCa2-Luc, and Murine FC1199 pancreatic cancer cell lines; assay: in vitro cancer cell growth in two pancreatic cancer cell lines; format: cell-based; conditions: FIGS. 2-5
Excerpt: (§3) Peptides were examined in two different pancreatic cancer cell lines to determine consistency of response. We sought to determine if there was efficacy of the peptide alone, or in combination with conventional chemotherapy, i.e., does it potentiate the effects of current therapy. The two cell lines used were Human MIA PaCa2-Luc, and Murine FC1199 (derived from tumors in KPC GEM mice).
(§4) The in vitro studies used human MIA PaCa2-Luc, and Murine FC1199 cell lines.

FC1199 orthotopic tumors [4] = assay: in vivo FC1199 orthotopic tumors, matrix deposition (desmoplasia); parameters: species or system mice; conditions: no day stated
Excerpt: (§5) While not wishing to be bound to any particular theory, it was hypothesized that the peptides might still be effective in blocking the formation and/or removing the formation of desmoplasia or tumor stroma associated with a solid tumor alone acting to prevent and or to treat cancer and as well to providing greater access of the chemotherapeutic or immunotherapeutic agent to the tumor. […] It is believed that many large, and smaller, molecule immunotherapeutic agents will not react with Peptides 1 and 2 and they may also be used in combination with one another.
as §1

[5] = system: MIA PaCa2-Luc cancer cells; assay: in vitro proliferation of MIA PaCa2-Luc cancer cells; format: cell-based, Human; conditions: FIG. 2
Excerpt: as §3, §5, §4

FC1199 orthotopic tumors [6] = assay: in vivo FC1199 orthotopic tumors, vessel number/vessel density (angiogenesis); parameters: species or system mice; conditions: no day stated
Excerpt: as §5

FC1199 orthotopic tumors [7] = assay: in vivo FC1199 orthotopic tumors, ascites production; parameters: species or system mice
Excerpt: as §2

FC1199 cells = assay: in vitro FC1199 cell growth, gemcitabine repression; format: cell-based, Murine; conditions: FIGS. 3 and 5
Excerpt: as §3, §4

renal fibrosis = conditions: disclosed in U.S. Pat. No. 7,780,949; cited from earlier work

In the case of `Nc1ccn([C@@H]2O[C@H](CO)[C@@H](O)C2(F)F)c(=O)n1` [Gemcitabine, gemcitabine, reference compound], the “tumor burden / tumor growth as measured by pancreas weight” value (FC1199 orthotopic tumors [1]) is reported as “produces a dose-dependent response to tumor burden”.

With “FSGVSSDGRSSTPH [Peptide 2, FSGVSSDGRSSTPH]” the “toxicity (body weight change)” value [2] was “non-toxic”.

With “SDRSADPNNQTGIS [Peptide 1, Mouse analog with native cysteines replaced with serines]” the “cancer growth / cell proliferation in vitro” value ([3]; agent alone) was “did not slow cancer growth in vitro; also recorded: do not have an effect in cell proliferation”, the “potentiation of the effects of gemcitabine in reducing cancer growth in vitro” value ([3]; combination with gemcitabine) was “did little or nothing to potentiate the effects of the chemotherapeutic agent gemcitabine in reducing cancer growth in vitro” and the “desmoplasia as measured by matrix deposition area” value (FC1199 orthotopic tumors [4]) was “effective in treating desmoplasia or stroma associated with a solid tumor; also recorded: a reduction in desmoplasia as measured by matrix deposition area”. The “proliferation of MIA PaCa2-Luc cancer cells” value [5] was “do not reduce the proliferation of MIA PaCa2-Luc cancer cells”, the “angiogenesis as measured by vessel number/vessel density” value (FC1199 orthotopic tumors [6]) was “reducing angiogenesis; also recorded: a reduction in angiogenesis as measured by vessel number/vessel density” and the “number of mice with ascites / ascites formation” value (FC1199 orthotopic tumors [7]; day 25, vs control) was “reducing the formation of ascites associated with a solid tumor; also recorded: effective in reducing the number of mice with ascites”. For the same molecule, the inflammation (FC1199 orthotopic tumors [7]; inferred from ascites data) was “reduce inflammation”, the “tumor burden in terms of pancreas weight, day 14” value (FC1199 orthotopic tumors [1]; Experiment 2, day 14, vs control) was “effective in reducing the tumor burden in terms of reduced pancreas weight when compared to a control” and the “tumor burden in terms of pancreas weight, day 25” value (FC1199 orthotopic tumors [1]; Experiment 2, day 25, vs control) was “effective in reducing the tumor burden in terms of reduced pancreas weight when compared to a control”. For the same molecule, the “potentiation of the therapeutic effects of gemcitabine / chemotherapeutic agent in vivo” value (FC1199 orthotopic tumors [1]) was “can potentiate the therapeutic effects of the standard chemotherapeutic agent gemcitabine”, the “potentiation of the therapeutic effects of gemcitabine / chemotherapeutic agent in vivo” value (FC1199 orthotopic tumors [1]; listed as CCNp38) was “treat a solid tumor more effectively than the chemotherapeutic or immunotherapeutic agents alone” and the “tumor burden / tumor growth as measured by pancreas weight” value (FC1199 orthotopic tumors [1]) was “effective in reducing the growth of orthotopic FC1199 tumor burden as measured by pancreas weight; also recorded: effective in reducing tumor growth and weight”. For the same molecule, the “expansion and spread of the tumor and cancer cells” value (FC1199 orthotopic tumors [1]; overview FIG. 1) was “blocking the expansion and spread of the tumor and cancer cells” and the “potentiation of gemcitabine repression of FC1199 cell growth” value (FC1199 cells) was “did not potentiate the effects of gemcitabine in repressing of FC1199 cell growth”.

B1: full-length CCN3 molecule: full-length CCN3 protein of U.S. Pat. No. 7,780,949 (protein, UniProt P48745 1-357, looked up)
chain: MQSVQSTSFCLRKQCLCLTFLLLHLLGQVAATQRCPPQCPGRCPATPPTCAPGVRAVLDGCSCCLVCARQRGESCSDLEPCDESSGLYCDRSADPSNQTGICTAVEGDNCVFDGVIYRSGEKFQPSCKFQCTCRDGQIGCVPRCQLDVLLPEPNCPAPRKVEVPGECCEKWICGPDEEDSLGGLTLAAYRPEATLGVEVSDSSVNCIEQTTEWTACSKSCGMGFSTRVTNRNRQCEMLKQTRLCMVRPCEQEPEQPTDKKGKKCLRTKKSLKAIHLQFKNCTSLHTYKPRFCGVCSDGRCCTPHNTKTIQAEFQCSPGQIVKKPVMVIGTCTCHTNCPKNNEAFLQELELKTTRGKM
modifications: full-length
For B1, the “fibrosis in an in vitro model of renal fibrosis” value (renal fibrosis) is listed as “blocks fibrosis”.
